Source: US20100144853A1, “NOVEL COMBINED ADMINISTRATION” (priority 2008, published 2010)

Columns and labels:
Assay type in all cases: in vitro ADME
[1] = tested on: Lipase from Hog Pancreas; experiment: Stability of COMPOUND A with Lipase, Procedure C (premix of COMPOUND A and Lipase, then COMPOUND B); conditions: 0.55 mg/mL Lipase
Protocol: Procedure C (Premix of COMPOUND A and Lipase, Followed by Addition of COMPOUND B): Remark: Final COMPOUND B concentration: 3 μg/ml 220 μL of drug solution (stock A) and 220 μL of FeSSIF concentrate (Lecithin 37.5 mM and Sodium taurocholate 150 mM) were mixed. At time zero the reaction was started by addition of 1700 μl of Lipase in phosphate buffered saline solution (from stock C to obtain a final enzyme concentration of 0.55 mg/mL). The mixture was incubated at 37° C. and after 5 min, a 200 μL sample was taken for HPLC analysis. Then 60 μL of COMPOUND B solution (stock B) previously diluted 1:10 in phosphate buffered saline solution (corresponds to 100 μg/mL COMPOUND B) was added and as a function of time, samples of 200 μL were taken, diluted immediately with 600 μL of isopropanol and centrifuged for 5 min at 3000 rpm. The supernatant was analyzed by HPLC. 1700 μl of Lipase in phosphate buffered saline solution (from stock C to obtain a final enzyme concentration of 0.55 mg/mL) were mixed with 220 μL of FeSSIF concentrate and at time zero 220 μL of drug solution (stock A) was added. After 7 min of incubation, a 200 μL sample was taken, 60 μL of diluted COMPOUND B solution (stock B) was added and continued as described for the 1st experiment.

[2] = tested on: Lipase from Hog Pancreas; experiment: Stability of COMPOUND A with Lipase, Procedure A (premix of Lipase and COMPOUND B, then COMPOUND A); conditions: 10 min, 0.55 mg/mL (11 U/mL) Lipase
Protocol: (§1) 240 mg Lipase (Lipase from Hog Pancreas, 20.6 U/mg Lipase, CAS No. 9001-62-1, Fluka, Art. No. 62300) were weighed into a vial and dissolved by stirring in 10 mL phosphate buffered saline solution pH 6.5. Any undissolved material was removed by centrifugation during 5 min at 5000 rpm. The supernatant was used for the experiments and diluted with PBS to obtain the Lipase at the final concentration of 0.55 mg/mL.
Procedure A (Premix of Lipase and COMPOUND B, Followed by Addition of Compound A):
1600 μL of Lipase in phosphate buffered saline solution (from stock C) to obtain a final enzyme concentration of 0.55 mg/mL) were mixed with 200 μL of COMPOUND B (stock B) and pre-incubated during 5 min at 37° C. At time zero 200 μL of drug solution (stock A) were added. The mixture was incubated at 37° C. After 10 min, the reaction was stopped by dilution of one part of the mixture with 3 parts of isopropanol.

[3] = tested on: Lipase from Hog Pancreas; experiment: Stability of COMPOUND A with Lipase, with and without COMPOUND B (Example 1); conditions: 0.55 mg/mL (11 U/mL) Lipase
Protocol: (a) FeSSIF (Fed State Simulated Intestinal Fluid) and phosphate buffered saline solution:
(b) Stock A=drug solution (0.5 mg/mL):
5 mg of thioisobutyric acid S-(2-{[1-(2-ethyl-butyl)-cyclohexanecarbonyl]-amino}-phenyl)ester (COMPOUND A) were dissolved in 50 μL ethanol and 950 μL mixed micelles Soybean lecithin/Sodium glycocholate (158/97 mg/mL) in water were added. One part of the mixture was diluted with 9 parts of phosphate buffered saline solution at pH 6.5.
(c) Stock B=esterase inhibitor solution (1.0 mg/mL)
5 mg 1-(3-hexyl-4-oxo-oxetan-2-yl)tridecan-2-yl 2-formyl-amino-4-methyl-pentanoate (COMPOUND B) were dissolved in 250 μL ethanol. 4.75 mL mixed micelles soybean lecithin/sodium glycocholate (30/80.6 mg/mL) were added to give a solution of 1 mg/mL COMPOUND B.
(d) Stock C=Lipase in phosphate buffered saline solution (PBS) pH 6.5 (example given at 24 mg/mL, with a final enzyme activity of about 450 U/mL)
as §1
[…] To this, 200 μL of drug solution (stock A) were injected at time zero. The mixture was incubated at 37° C., while mixing gently with a rotating shaker at about 2 rpm. At regular intervals 200 μL samples were taken and diluted immediately with 600 μL of isopropanol. The combined solution/suspension was centrifuged during 5 min at 3000 rpm and the concentration of COMPOUND A as well as its potential degradation products were determined in the supernatant by HPLC analysis.
To obtain the value at time zero, 600 μL of isopropanol were added to 180 μL of a 0.55 mg/mL Lipase in a phosphate buffered saline solution to inhibit the enzymes followed by the addition of 20 μL of drug solution (stock A).

**Q.** `CCC(CC)CC1(C(=O)Nc2ccccc2SC(=O)C(C)C)CCCCC1` [COMPOUND A, thioisobutyric acid S-(2-{[1-(2-ethyl-butyl)-cyclohexanecarbonyl]-amino}-phenyl)ester] was tested. Which “Concentration of COMPOUND A” value ([1]; +3 μg/mL COMPOUND B at T = 5 min, time 0 min) did it give?
**A.** 45300 ng/mL

**Q.** What about the “Concentration of COMPOUND A” value ([1]; +3 μg/mL COMPOUND B at T = 5 min, time 5 min) of the same compound?
**A.** 41500 ng/mL

**Q.** And the “Concentration of COMPOUND A” value ([1]; +3 μg/mL COMPOUND B at T = 5 min, time 10 min)?
**A.** 39100 ng/mL

**Q.** And the “Concentration of COMPOUND A” value ([1]; +3 μg/mL COMPOUND B at T = 5 min, time 15 min)?
**A.** 39300 ng/mL

**Q.** And the “Concentration of COMPOUND A” value ([1]; +3 μg/mL COMPOUND B at T = 5 min, time 20 min)?
**A.** 39100 ng/mL

**Q.** And the “Concentration of COMPOUND A” value ([1]; +3 μg/mL COMPOUND B at T = 5 min, time 25 min)?
**A.** 39300 ng/mL

**Q.** And the “Concentration of COMPOUND A” value ([1]; +3 μg/mL COMPOUND B at T = 5 min, time 30 min)?
**A.** 39300 ng/mL

**Q.** And the “Concentration of COMPOUND A” value ([1]; +3 μg/mL COMPOUND B at T = 7 min, time 0 min)?
**A.** 45300 ng/mL

**Q.** And the “Concentration of COMPOUND A” value ([1]; +3 μg/mL COMPOUND B at T = 7 min, time 5 min)?
**A.** 40400 ng/mL

**Q.** And the “Concentration of COMPOUND A” value ([1]; +3 μg/mL COMPOUND B at T = 7 min, time 10 min)?
**A.** 38400 ng/mL

**Q.** And the “Concentration of COMPOUND A” value ([1]; +3 μg/mL COMPOUND B at T = 7 min, time 15 min)?
**A.** 38200 ng/mL

**Q.** And the “Concentration of COMPOUND A” value ([1]; +3 μg/mL COMPOUND B at T = 7 min, time 20 min)?
**A.** 37900 ng/mL

**Q.** What about the “Concentration of COMPOUND A” value ([1]; +3 μg/mL COMPOUND B at T = 7 min, time 25 min) of the same compound?
**A.** 37800 ng/mL

**Q.** And the “Concentration of COMPOUND A” value ([1]; +3 μg/mL COMPOUND B at T = 7 min, time 30 min)?
**A.** 37900 ng/mL

**Q.** What about the “Concentration of COMPOUND A” value ([2]; COMPOUND B 0 μg/mL) of the same compound?
**A.** 14700 ng/mL

**Q.** And the “Concentration of COMPOUND A” value ([2]; COMPOUND B 50 μg/mL)?
**A.** 46400 ng/mL

**Q.** What about the “Concentration of COMPOUND A” value ([2]; COMPOUND B 100 μg/mL) of the same compound?
**A.** 48200 ng/mL

**Q.** What about the “Concentration of COMPOUND A” value ([3]; +100 μg/mL COMPOUND B, 5 min) of the same compound?
**A.** 48200 ng/mL

**Q.** What about the “Concentration of COMPOUND A” value ([3]; +100 μg/mL COMPOUND B, 10 min) of the same compound?
**A.** 48200 ng/mL

**Q.** And the “Concentration of COMPOUND A” value ([3]; +100 μg/mL COMPOUND B, 15 min)?
**A.** 48200 ng/mL

**Q.** What about the “Concentration of COMPOUND A” value ([3]; +100 μg/mL COMPOUND B, 20 min) of the same compound?
**A.** 48000 ng/mL

**Q.** What about the “Concentration of COMPOUND A” value ([3]; +100 μg/mL COMPOUND B, 30 min) of the same compound?
**A.** 48300 ng/mL

**Q.** And the “Concentration of COMPOUND A” value ([3]; +100 μg/mL COMPOUND B, 60 min)?
**A.** 40100 ng/mL

**Q.** And the “Concentration of COMPOUND A” value ([3]; time 0 min (column +100 μg/mL COMPOUND B), theoretical 50 μg/mL)?
**A.** 46900 ng/mL

**Q.** And the “Concentration of COMPOUND A” value ([3]; w/o COMPOUND B, 5 min)?
**A.** 27200 ng/mL

**Q.** And the “Concentration of COMPOUND A” value ([3]; w/o COMPOUND B, 10 min)?
**A.** 14700 ng/mL

**Q.** And the “Concentration of COMPOUND A” value ([3]; w/o COMPOUND B, 15 min)?
**A.** 7300 ng/mL

**Q.** And the “Concentration of COMPOUND A” value ([3]; w/o COMPOUND B, 20 min)?
**A.** 4100 ng/mL

**Q.** What about the “Concentration of COMPOUND A” value ([3]; w/o COMPOUND B, 30 min) of the same compound?
**A.** <100 ng/mL

**Q.** What about the “Concentration of COMPOUND A” value ([3]; w/o COMPOUND B, 60 min) of the same compound?
**A.** <100 ng/mL
